Source: patent US7674795B2, “Fluorene derivatives, composition containing said derivatives and the use thereof” (Aventis Pharma SA, priority 2005, dated 2010)
pIC50: −log10 of the molar value. Counter-ions that a name gives are not always drawn.

Molecular target: Hsp82 (Saccharomyces cerevisiae, UniProt P02829)
Assay: PK/LDH enzyme coupling test of the ATPase activity of Hsp82 (NADH decrease at 340 nm)
Assay type: biochemical
Conditions: 1 μM Hsp82, 250 μM ATP, 37° C., pyruvate kinase/lactate dehydrogenase coupling, read-out: Hsp82 ATPase IC50
Text: The formation of ADP due to the ATPase activity of Hsp82 was utilized for developing another method of evaluating the enzymatic activity of this enzyme by application of an enzyme coupling system employing pyruvate kinase (PK) and lactate dehydrogenase (LDH). In this spectrophotometric method of the kinetic type, the PK catalyses the formation of ATP and of pyruvate starting from phosphoenol-pyruvate (PEP) and the ADP produced by HSP82. The pyruvate that formed, an LDH substrate, is then converted to lactate in the presence of NADH. In this case, the decrease in the concentration of NADH, measured by the decrease in absorbance at wavelength of 340 nm, is proportional to the concentration of ADP produced by HSP82. […] This mixture is preincubated at 37° C. for 30 min before adding 3.77 units of LDH and 3.77 units of PK. The reaction is started by adding the product to be evaluated, in variable concentrations, and of Hsp82, at a concentration of 1 μM. The enzymatic activity of Hsp82 is then measured continuously in a microplate reader at 37° C., at wavelength of 340 nm. The initial reaction rate is found by measuring the slope of the tangent at the origin of the recorded curve. The enzymatic activity is expressed as μM of ADP formed per minute. The effect of the various products tested is expressed as percentage of inhibition of ATPase activity, using the following codes: • A: […]

Hsp82, sequence (P02829 whole entry): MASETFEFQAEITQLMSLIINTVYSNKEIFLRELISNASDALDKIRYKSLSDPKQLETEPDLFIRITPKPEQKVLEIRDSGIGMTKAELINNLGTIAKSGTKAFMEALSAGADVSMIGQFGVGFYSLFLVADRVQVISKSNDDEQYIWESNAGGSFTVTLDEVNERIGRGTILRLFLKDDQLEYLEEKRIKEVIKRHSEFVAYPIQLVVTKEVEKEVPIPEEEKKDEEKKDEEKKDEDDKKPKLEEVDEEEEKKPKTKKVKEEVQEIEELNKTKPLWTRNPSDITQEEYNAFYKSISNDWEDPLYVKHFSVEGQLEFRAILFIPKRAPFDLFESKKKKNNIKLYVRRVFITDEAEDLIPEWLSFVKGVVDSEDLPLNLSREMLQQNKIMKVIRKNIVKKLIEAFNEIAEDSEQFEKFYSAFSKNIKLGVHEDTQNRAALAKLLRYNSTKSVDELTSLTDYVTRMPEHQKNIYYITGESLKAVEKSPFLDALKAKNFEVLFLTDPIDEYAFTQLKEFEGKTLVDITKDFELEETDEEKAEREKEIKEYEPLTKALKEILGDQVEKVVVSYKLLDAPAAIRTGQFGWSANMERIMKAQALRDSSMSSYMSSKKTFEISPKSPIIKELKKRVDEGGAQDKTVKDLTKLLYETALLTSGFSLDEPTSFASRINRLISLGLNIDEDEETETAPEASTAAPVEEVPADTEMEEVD

pIC50 | SMILES
5.00 to 6.00 | O=C(NC1c2ccccc2-c2c(-c3nc4ccncc4[nH]3)cccc21)c1cc[nH]n1 (racemic) [Example 39, [4-(3H-imidazo[4,5-c]pyridin-2-yl)-9H-fluoren-9(R,S)-yl]amide trifluoroacetate of 1H-pyrazole-3-carboxylic acid]
5.00 to 6.00 | O=C(Cc1ccc(Cl)nc1)NC1c2ccccc2-c2c(-c3nc4cnccc4[nH]3)cccc21 (racemic) [Example 25, 2-(6-chloropyridin-3-yl)-N-[4-(3H-imidazo[4,5-c]pyridin-2-yl)-9H-fluoren-9(R,S)-yl]-acetamide]
5.00 to 6.00 | Nc1nc(CC(=O)NC2c3ccccc3-c3c(-c4nc5cnccc5[nH]4)cccc32)cs1 (racemic) [Example 24, trifluoroacetate of 2-(2-amino-thiazol-4-yl)-N-[4-(3H-imidazo[4,5-c]pyridin-2-yl)-9H-fluoren-9(R,S)-yl]-acetamide]
5.00 to 6.00 | O=C(NC1c2ccccc2-c2c(-c3nc4cnccc4[nH]3)cccc21)c1cccc2[nH]ccc12 (racemic) [Example 53, [4-(3H-imidazo[4,5-c]pyridin-2-yl)-9H-fluoren-9(R,S)-yl]amide of 1H-indole-4-carboxylic acid]
5.00 to 6.00 | NC(=O)C[C@@H](N)C(=O)NC1c2ccccc2-c2c(-c3nc4cnccc4[nH]3)cccc21 (stereo partly drawn) [Example 65, hydrochloride of (R)-2-amino-N1-[4-(3H-imidazo[4,5-c]pyridin-2-yl)-9H-fluoren-9(R,S)-yl]-succinamide]
5.00 to 6.00 | COc1ccc(CC(=O)NC2c3ccccc3-c3c(-c4nc5cnccc5[nH]4)cccc32)cc1 (racemic) [Example 27, N-[4-(3H-imidazo[4,5-c]pyridin-2-yl)-9H-fluoren-9(R,S)-yl]-2-(4-methoxy-phenyl)-acetamide]
5.00 to 6.00 | O=C(NC1c2ccccc2-c2c(-c3nc4ccncc4[nH]3)cccc21)c1cc(O)nc(O)n1 (stereo not shown) [Example 88, [4-(3H-imidazo[4,5-c]pyridin-2-yl)-9H-fluoren-9-yl]amide of 2,6-dihydroxypyrimidine-4-carboxylic acid]
5.00 to 6.00 | NC(=O)CCC(=O)NC1c2ccccc2-c2c(-c3nc4cnccc4[nH]3)cccc21 (racemic) [Example 40, N-[4-(3H-imidazo[4,5-c]pyridin-2-yl)-9H-fluoren-9(R,S)-yl]-succinamide trifluoroacetate]
> 6.00 | Nc1nccc(C(=O)NC2c3ccccc3-c3c(-c4nc5ccncc5[nH]4)cccc32)n1 (stereo not shown) [Example 91, [4-(3H-imidazo[4,5-c]pyridin-2-yl)-9H-fluoren-9-yl]amide of 2-amino-pyrimidine-4-carboxylic acid]
5.00 to 6.00 | CC(C)(C)OC(=O)N[C@@H](CC(N)=O)C(=O)NC1c2ccccc2-c2c(-c3nc4cnccc4[nH]3)cccc21 (stereo partly drawn) [Example 57, tert-butyl ester of {(S)-2-carbamoyl-1-[4-(3H-imidazo[4,5-c]pyridin-2-yl)-9H-fluoren-9(R,S)-ylcarbamoyl]-ethyl}-carbamoic acid]

Second part, the molecule before the results:

SMILES | pIC50
CC(C)(C)OC(=O)N1CCC(C(=O)NC2c3ccccc3-c3c(-c4nc5ccncc5[nH]4)cccc32)CC1 (racemic) [Example 33, tert-butyl ester of 4-[4-(3H-imidazo[4,5-c]pyridin-2-yl)-9H-fluoren-9(R,S)-ylcarbamoyl]-piperidine-1-carboxylic acid] | 5.00 to 6.00
c1ccc(CNN=C2c3ccccc3-c3c2cccc3-c2nc3cnccc3[nH]2)cc1 (mixture of isomers) [Example 8, N-benzyl-N′-[4-(1H-imidazo[4,5-c]pyridin-2-yl)-fluoren-9-ylidene]-hydrazine, 55/45 mixture of E and Z isomers] | 5.00 to 6.00
O=C(NC1c2ccccc2-c2c(-c3nc4ccncc4[nH]3)cccc21)c1c(Br)cnc2[nH]cnc12 (racemic) [Example 118, [4-(3H-imidazo[4,5-c]pyridin-2-yl)-9H-fluoren-9(R,S)-yl]amide of 6-bromo-3H-imidazo[4,5-b]pyridine-7-carboxylic acid] | > 6.00
O=C(NC1c2ccccc2-c2c(-c3nc4ccc(O)cc4[nH]3)cccc21)c1ccncc1 (racemic) [Example 117, N-[4-(6-hydroxy-1H-benzimidazol-2-yl)-9H-fluoren-9(R,S)-yl]-isonicotinamide] | 5.00 to 6.00
c1cncc(CON=C2c3ccccc3-c3c2cccc3-c2nc3cnccc3[nH]2)c1 (mixture of isomers) [Example 11, O-(pyridin-3-yl)methyl 4-(3H-imidazo[4,5-c]pyridin-2-yl)-fluoren-9-one oxime (Z, E)] | 5.00 to 6.00
O=C(NC1c2ccccc2-c2c(-c3nc4ccncc4[nH]3)cccc21)c1cc(O)nc2ccccc12 (racemic) [Example 31, [4-(3H-imidazo[4,5-c]pyridin-2-yl)-9H-fluoren-9(R,S)-yl]amide of 2-hydroxy-quinoline-4-carboxylic acid] | 5.00 to 6.00
O=C(NCc1ccco1)NC1c2ccccc2-c2c(-c3nc4ccncc4[nH]3)cccc21 (racemic) [Example 74, 1-furan-2-ylmethyl-3-[4-(3H-imidazo[4,5-c]pyridin-2-yl)-9H-fluoren-9(R,S)-yl]-urea] | 4.00 to 5.00
O=C(NC1c2ccccc2-c2c(-c3nc4ccncc4[nH]3)cccc21)c1cc(Cl)cc2[nH]cnc12 (racemic) [Example 44, [4-(3H-imidazo[4,5-c]pyridin-2-yl)-9H-fluoren-9(R,S)-yl]amide of 6-chloro-1H-benzimidazole-4-carboxylic acid] | 5.00 to 6.00
O=C(NC1c2ccccc2-c2c(-c3nc4ccncc4[nH]3)cccc21)c1cc(-c2ccco2)nc2ccccc12 (racemic) [Example 113, [4-(3H-imidazo[4,5-c]pyridin-2-yl)-9H-fluoren-9(R,S)-yl]amide of 2-(furan-2-yl)-quinoline-4-carboxylic acid] | 5.00 to 6.00
Cc1cc(C(=O)NC2c3ccccc3-c3c(-c4nc5ccncc5[nH]4)cccc32)cc(O)n1 (racemic) [Example 121, 2-hydroxy-N-[4-(3H-imidazo[4,5-c]pyridin-2-yl)-9H-fluoren-9(R,S)-yl]-6-methyl-isonicotinamide] | 5.00 to 6.00
O/N=C1/c2ccccc2-c2c1cccc2-c1nc2cnccc2[nH]1 [Example 23, 4-(3H-imidazo[4,5-c]pyridin-2-yl)-fluoren-9-one oxime (E)] | > 6.00
O=C(NC1c2ccccc2-c2c(-c3nc4ccncc4[nH]3)cccc21)c1ccncc1O (racemic) [Example 103, 3-hydroxy-N-[4-(3H-imidazo[4,5-c]pyridin-2-yl)-9H-fluoren-9(R,S)-yl]-isonicotinamide] | > 6.00
O=C(Cc1ccncc1)NC1c2ccccc2-c2c(-c3nc4ccncc4[nH]3)cccc21 (racemic) [Example 37, N-[4-(3H-imidazo[4,5-c]pyridin-2-yl)-9H-fluoren-9(R,S))-yl]-2-pyridin-4-yl-acetamide trifluoroacetate] | 5.00 to 6.00
O=C(NC1c2ccccc2-c2c(-c3nc4ccncc4[nH]3)cccc21)c1ccncc1 (racemic) [Example 47, N-[4-(3H-imidazo[4,5-c]pyridin-2-yl)-9H-fluoren-9(R,S)-yl]-isonicotinamide] | > 6.00
O=C(NC1c2ccccc2-c2c(-c3nc4ccncc4[nH]3)cccc21)c1ccnnc1 (stereo not shown) [Example 86, [4-(3H-imidazo[4,5-c]pyridin-2-yl)-9H-fluoren-9-yl]amide of pyridazine-4-carboxylic acid] | 5.00 to 6.00
